The values below come from patent publication EP0796866A1, “Antithrombotic diamides” (ELI LILLY AND COMPANY, priority 1996, dated 1997).

Structures can show the parent of a compound that is named as a salt.

Common to all, as to assay type: biochemical
Assay [1] deals with human or animal plasma. Kind of assay: thrombin time (TT) coagulation assay in plasma. As to conditions: concentration required to double the clotting time, linear extrapolation; thrombin 10 NIH units/ml. On the procedure: (§1) Dog plasma and rat plasma are obtained from conscious mixed-breed hounds (either sex, hazelton-LRE, Kalamazoo, Michigan, U.S.A.) or from anesthetized male Sprague-Dawley rats (Harlan Sprague-Dawley, Inc., Indianapolis, Indiana, U.S.A.) by venipuncture into 3.8 percent citrate. Fibrinogen is prepared from in-date ACD human blood as the fraction I-2 according to previous procedures and specifications. Smith, Biochem. J., 185, 1-11 (1980); and Smith, et al., Biochemistry, 11, 2958-2967 (1972). Human fibrinogen is also purchased as 98 percent pure/plasmin free from American Diagnostica, Greenwich, Connecticut. Coagulation reagents ACTIN, Thromboplastin, and Human plasma are from Baxter Healthcare Corp., Dade Division, Miami, Florida. […]
(§2) Coagulation assay procedures are as previously described. […] The thrombin time (TT) is measured by adding 0.05 ml saline and 0.05 ml thrombin (10 NIH units/ml) to 0.05 ml test plasma. The activated partial thromboplastin time (APTT) is measured by incubation of 0.05 ml test plasma with 0.05 ml Actin reagent for 120 seconds followed by 0.05 ml CaCl2 (0.02 M). The prothrombin time (PT) is measured by adding 0.05 ml saline and 0.05 ml Thromboplastin-C reagent to 0.05 ml test plasma. […] Each of the particularly preferred examples of the invention listed above was determined to have a TT value of less than 100 ng/mL. […]

For assay [2], the system named is human or animal plasma. As to the kind of experiment: activated partial thromboplastin time (APTT) coagulation assay in plasma. As to conditions: concentration required to double the clotting time, linear extrapolation; Actin reagent, CaCl2. On the procedure:
as §1, §2

For the next assay, the target named is T1, human thrombin (Homo sapiens, UniProt P00734).
T1 construct: purified human thrombin; purchased Enzyme Research Laboratories, South Bend, Indiana
As to the kind of experiment: inhibition of the amidase activity of thrombin (chromogenic substrate), Kass. As to conditions: hypothetical equilibrium (association) constant thrombin + test compound; mean over a range of concentrations; pH 7.4. On the procedure:
The assay is carried out by mixing 50 µl buffer (0.03M Tris, 0.15M NaCl, pH 7.4) with 25 µl of human thrombin solution (purified human thrombin, Enzyme Research Laboratories, South Bend, Indiana, at 8 NIH units/ml) and 25 µl of test compound in a solvent (50% aqueous methanol (v:v)). Then 150 µl of an aqueous solution of the chromogenic substate (at 0.25 mg/ml) are added and the rates of hydrolysis of the substrate are measured by monitoring the reactions at 405 nm for the release of p-nitroaniline. Standard curves are constructed by plotting free thrombin concentration against hydrolysis rate. The hydrolysis rates observed with test compounds are then converted to "free thrombin" values in the respective assays by use of the standard curves. The bound thrombin (bound to test compound) is calculated by subtracting the amount of free thrombin observed in each assay from the known initial amount of thrombin used in the assay. The amount of free inhibitor in each assay is calculated by subtracting the number of moles of bound thrombin from the number of moles of added inhibitor (test compound). […]
Kass is calculated for a range of concentrations of test compounds and the mean value reported in units of liter per mole. […] For example, each of the particularly preferred examples of the invention listed above was determined to have a Kass of at least 5 X 10^6 L/mole.

Assay [3] deals with human or animal plasma. Kind of assay: prothrombin time (PT) coagulation assay in plasma. To be noted: concentration required to double the clotting time, linear extrapolation; Thromboplastin-C reagent. On the procedure:
as §1, §2

The Kd is the constant that tells how readily two partners part at equilibrium.

Take `O=C(O)CN[C@H](CC1CCCCC1)C(=O)N1CCC[C@H]1C(=O)NC/C=C/c1c[nH]cn1` [Example 7, N-(carboxymethyl)-D-cyclohexylalanyl-N-[(E)-3-(imidazol-4-yl)prop-2-enyl]-L-prolinamide hydrochloride]: the TT in the assay with human or animal plasma [1] is reported as 30 ng/mL. Moreover, the APTT in the assay with human or animal plasma [2] is 280 ng/mL. Besides, the Kd on human thrombin was 17.5 nM. Further, in the assay on human or animal plasma [3], the PT is recorded as 430 ng/mL.
In the case of `O=C(O)CN[C@H](CC1CCCCC1)C(=O)N1CCC[C@H]1C(=O)NCCCc1c[nH]cn1` [Example 8, N-(carboxymethyl)-D-cyclohexylalanyl-N-[3-(imidazol-4-yl)propyl]-L-prolinamide hydrochloride], the TT in the assay on human or animal plasma [1] is on record as 20 ng/mL. Moreover, in the assay on human or animal plasma [2], the APTT is recorded as 170 ng/mL. Moreover, the Kd at human thrombin is 12.5 nM. Also, the PT with human or animal plasma [3] is 380 ng/mL.
